Here are results for 3 compounds from US12116363B2, “Combinations for immune-modulation in cancer treatment” (SENHWA BIOSCIENCES, INC., priority 2018, dated 2024).

In assay [1] the test system is 4T1 breast cancer cells. Kind of assay: Tumor growth inhibition in immune-competent syngeneic mouse model 4T1. The class given is in vivo, Balb/C mice. As to conditions: 14 day; CX-4945 75 mg/kg oral BID Day 0-13; cisplatin 6 mg/kg i.p. QW Day 0 and 7. How it is done:
Efficacy studies of tumor growth inhibition and T cells activities was conducted in an immune-competent syngeneic mouse models, 4T1, that is known to be resistant to the treatment of immune checkpoint inhibitors such as anti-PD1, anti-PD-L1, and anti-CTLA4. The resistance to these antagonists that modulates T cell […] signaling indicate a high immune suppressive tumor microenvironment.
This series of studies were conducted in Balb/C mice that are six to eight weeks old. Breast cancer cells, 4T1, were injected subcutaneously with 3×10^5 cells in 0.1 ml PBS to the right flank of the mice. Mice were randomized for treatment when the mean tumor size reached approximately 80-120 mm^3. Treatment were administered with CX-4945 and/or cisplatin at the doses and schedules described in Table 1. […] Tumors were measured two dimensionally (width×length) with an electronic caliper and tumor volume was calculated with the formula V=(L×W×W)/2, where V is tumor volume, L is tumor length (the longest tumor dimension) and W is tumor width (the longest tumor dimension perpendicular to L). The mice were monitored twice weekly and euthanized when tumor sizes reached approximately 800-1000 mm^3 for flow cytometry analysis.
Anti-tumor activities were measured as % Tumor Growth Inhibition (% TGI) at the time of euthanized. TGI was calculated as % TGI=100×(1−T/C). […]

The subject of assay [2] is Colo-205 colorectal cancer model. Kind of assay: Colo-205 colorectal cancer model, gemcitabine and CX-4945. It is filed as in vivo. As to conditions: Colo-205 model (FIG. 2). An excerpt:
The Colo-205 colorectal cancer model is resistant to each individual agent alone (FIG. 2).

Assay [3] deals with tumor-infiltrating T cells and MDSC in 4T1 tumor microenvironment. Kind of assay: Flow cytometry of immune cells in 4T1 tumors. As to conditions: immune competent mice. The class given is in vivo, Balb/C mice. How it is done:
The composition of immune cells was analyzed with multi-color flow cytometry (FACS) at days when tumor reaches 800-1000 mm^3. Tumors were treated with dissociation media (Miltenyi, CAT #130-096-730) and resuspend in FACS buffer. T cell infiltration was measured by the investigating the number of T cells in the tumor samples. CD4 T, CD8 T, activated CD4 T, and activated CD8 T cells were identified by cell surface marker as CD45^+CD3^+CD4^+, CD45^+CD3^+CD8^+, CD45^+CD3^+CD4^+CD69^+, and CD45^+CD3^+CD8^+CD69^+, respectively. The absolute count of cells was measured by normalized number of cells with counting beads (eBiosciences CAT #01-1234-42) and the weight of each tumor sample. Absolute count of tumor-infiltrating T cells was calculated by the formula as Absolute count (cells/mg)=[(cell count×eBead Volume)/(eBead count×tumor weight)]×eBead concentration.

Assay [4] deals with A2780 ovarian cancer xenografts. Kind of assay: A2780 ovarian tumor xenograft model, gemcitabine and CX-4945. It is filed as in vivo. As to conditions: gemcitabine 60 mg/kg i.v., CX-4945 100 mg/kg oral.

Each structure is given as a SMILES string.

In the case of `N.N.[Cl][Pt][Cl]` [Cisplatin, cisplatin, reference compound], in assay [1], the “% TGI” value is 45%.

Turning to `O=C(O)c1ccc2c(c1)nc(Nc1cccc(Cl)c1)c1ccncc12` [CX-4945, silmitasertib], the tumor growth entry in assay [2] is listed as “resistant”. The “number of MDSC systemically or locally in the tumor microenvironment” value in assay [3] is “does not decrease”. The “% TGI” value in assay [1] worked out at 18%. In addition, in assay [4], the “% TGI” value is on record as 20%, the “Median TTE days” value was 18 days and the “delay in time to endpoint (TTE analysis)” value is recorded as “significant delay in time to endpoint”.

Turning to `Nc1ccn([C@@H]2O[C@H](CO)[C@@H](O)C2(F)F)c(=O)n1` [Gemcitabine, gemcitabine, reference compound], in assay [2], the tumor growth entry is on record as “resistant”. Further, in assay [4], the “% TGI” value came to 68%, the “Median TTE days” value was 28 days and the “delay in time to endpoint (TTE analysis)” value is “significant delay in time to endpoint”.
